Species: Rattus norvegicus
Test: DrugMatrix - Regimen: Daily Repeat
Type: toxicity, organism-based, Sprague-Dawley
Set-up: regimen Daily Repeat, gender Male, age 6-8 weeks
Conditions: in vivo, po, route oral GAVAGE, vehicle 100 % WATER; for CREATININE / GLUCOSE / LACTATE DEHYDROGENASE / LIPASE / PHOSPHORUS / POTASSIUM / SODIUM / TOTAL BILIRUBIN / TOTAL PROTEIN / URIC ACID / ALANINE AMINOTRANSFERASE / ALBUMIN / ALKALINE PHOSPHATASE / ASPARTATE AMINOTRANSFERASE / BLOOD UREA NITROGEN / CARBON DIOXIDE / CHLORIDE / CHOLESTEROL / CREATINE PHOSPHOKINASE: tissue Plasma; for ABSOLUTE BASOPHIL / ABSOLUTE EOSINOPHIL / ABSOLUTE LYMPHOCYTE / ABSOLUTE MONOCYTE / ABSOLUTE SEGMENTED NEUTROPHIL / BASOPHIL / EOSINOPHIL / ERYTHROCYTE COUNT / HEMATOCRIT / HEMOGLOBIN / LEUKOCYTE COUNT / LYMPHOCYTE / MEAN CORPUSCULAR HEMOGLOBIN / MEAN CORPUSCULAR HEMOGLOBIN CONCENTRATION / MEAN CORPUSCULAR VOLUME / MONOCYTE / NEUTROPHIL / NUCLEATED RED BLOOD CELLS / PLATELET COUNT: tissue Blood
[1] = 25 mg/kg, 120 h, dose level Low, time 5 day
[2] = 54 mg/kg, 72 h, dose level High, time 3 day
[3] = 54 mg/kg, 120 h, dose level High, time 5 day
[4] = 80 mg/kg, 72 h, dose level High, time 3 day
[5] = 80 mg/kg, 120 h, dose level High, time 5 day

## CCC1(c2ccccc2)C(=O)NC(=O)NC1=O [PHENOBARBITAL]
[1]
  CREATININE: 0.15 mg/dL
  GLUCOSE: 135.67 mg/dL
  LACTATE DEHYDROGENASE: 131 u/L
  LIPASE: 9.33 u/L
  PHOSPHORUS: 11 mg/dL
  POTASSIUM: 6.37 MEQ/L
  SODIUM: 145.53 MEQ/L
  TOTAL BILIRUBIN: 0.17 mg/dL
  TOTAL PROTEIN: 6.23 G/DL
  URIC ACID: 0.7 mg/dL
[2]
  ABSOLUTE BASOPHIL: 0 CELLS/uL
  ABSOLUTE EOSINOPHIL: 0 CELLS/uL
  ABSOLUTE LYMPHOCYTE: 6613.67 CELLS/uL
  ABSOLUTE MONOCYTE: 76.67 CELLS/uL
  ABSOLUTE SEGMENTED NEUTROPHIL: 1009.67 CELLS/uL
  BASOPHIL: 0%
  EOSINOPHIL: 0%
  ERYTHROCYTE COUNT: 5.6 x10E6/uL
  HEMATOCRIT: 34.33%
  HEMOGLOBIN: 13.17 G/DL
  LEUKOCYTE COUNT: 7.7 x10E3/uL
  LYMPHOCYTE: 86%
  MEAN CORPUSCULAR HEMOGLOBIN: 23.53 pg
  MEAN CORPUSCULAR HEMOGLOBIN CONCENTRATION: 38.37 G/DL
  MEAN CORPUSCULAR VOLUME: 61.37 fL
  MONOCYTE: 1%
  NEUTROPHIL: 13%
  NUCLEATED RED BLOOD CELLS: 0 /100WBC
  PLATELET COUNT: 1130.67 x10E3/uL
  ALANINE AMINOTRANSFERASE: 66.33 u/L
  ALBUMIN: 3.9 G/DL
  ALKALINE PHOSPHATASE: 296.33 u/L
  ASPARTATE AMINOTRANSFERASE: 99.33 u/L
  BLOOD UREA NITROGEN: 16.33 mg/dL
  CARBON DIOXIDE: 35.67 mmol/L
  CHLORIDE: 98.5 MEQ/L
  CHOLESTEROL: 85.67 mg/dL
  CREATINE PHOSPHOKINASE: 643 u/L
  CREATININE: 0.14 mg/dL
  GLUCOSE: 132.33 mg/dL
  LACTATE DEHYDROGENASE: 152.67 u/L
  LIPASE: 11 u/L
  PHOSPHORUS: 10.93 mg/dL
  POTASSIUM: 5.81 MEQ/L
  SODIUM: 144.8 MEQ/L
  TOTAL BILIRUBIN: 0.2 mg/dL
  TOTAL PROTEIN: 5.87 G/DL
  URIC ACID: 0.63 mg/dL
[3]
  ABSOLUTE BASOPHIL: 0 CELLS/uL
  ABSOLUTE EOSINOPHIL: 0 CELLS/uL
  ABSOLUTE LYMPHOCYTE: 8394.67 CELLS/uL
  ABSOLUTE MONOCYTE: 27.33 CELLS/uL
  ABSOLUTE SEGMENTED NEUTROPHIL: 1011.33 CELLS/uL
  BASOPHIL: 0%
  EOSINOPHIL: 0%
  ERYTHROCYTE COUNT: 5.14 x10E6/uL
  HEMATOCRIT: 32.97%
  HEMOGLOBIN: 12.8 G/DL
  LEUKOCYTE COUNT: 9.43 x10E3/uL
  LYMPHOCYTE: 89.33%
  MEAN CORPUSCULAR HEMOGLOBIN: 24.87 pg
  MEAN CORPUSCULAR HEMOGLOBIN CONCENTRATION: 38.83 G/DL
  MEAN CORPUSCULAR VOLUME: 64.1 fL
  MONOCYTE: 0.33%
  NEUTROPHIL: 10.33%
  NUCLEATED RED BLOOD CELLS: 0 /100WBC
  PLATELET COUNT: 1251 x10E3/uL
  ALANINE AMINOTRANSFERASE: 51 u/L
  ALBUMIN: 4.2 G/DL
  ALKALINE PHOSPHATASE: 333.33 u/L
  ASPARTATE AMINOTRANSFERASE: 88.33 u/L
  BLOOD UREA NITROGEN: 18.33 mg/dL
  CARBON DIOXIDE: 32.67 mmol/L
  CHLORIDE: 100.67 MEQ/L
  CHOLESTEROL: 84 mg/dL
  CREATINE PHOSPHOKINASE: 245.33 u/L
  CREATININE: 0.16 mg/dL
  GLUCOSE: 134.67 mg/dL
  LACTATE DEHYDROGENASE: 129.33 u/L
  LIPASE: 9.67 u/L
  PHOSPHORUS: 10.53 mg/dL
  POTASSIUM: 6.17 MEQ/L
  SODIUM: 145.07 MEQ/L
  TOTAL BILIRUBIN: 0.2 mg/dL
  TOTAL PROTEIN: 6.4 G/DL
  URIC ACID: 0.8 mg/dL
[4]
  BASOPHIL: 0.45%
  EOSINOPHIL: 0.45%
  ERYTHROCYTE COUNT: 7.21 x10E6/uL
  HEMATOCRIT: 44%
  HEMOGLOBIN: 13.8 G/DL
  LEUKOCYTE COUNT: 13.79 x10E3/uL
  LYMPHOCYTE: 79.7%
  MEAN CORPUSCULAR HEMOGLOBIN: 19.15 pg
  MEAN CORPUSCULAR HEMOGLOBIN CONCENTRATION: 31.35 G/DL
  MEAN CORPUSCULAR VOLUME: 61.05 fL
  MONOCYTE: 2.35%
  NEUTROPHIL: 15.8%
  PLATELET COUNT: 1419.5 x10E3/uL
  ALANINE AMINOTRANSFERASE: 37.33 u/L
  ALBUMIN: 3.43 G/DL
  ALKALINE PHOSPHATASE: 281 u/L
  ASPARTATE AMINOTRANSFERASE: 57 u/L
  BLOOD UREA NITROGEN: 12.33 mg/dL
  CHLORIDE: 103 MEQ/L
  CHOLESTEROL: 84.33 mg/dL
  CREATINE PHOSPHOKINASE: 205.33 u/L
  CREATININE: 0.37 mg/dL
  GLUCOSE: 185 mg/dL
  PHOSPHORUS: 13.43 mg/dL
  POTASSIUM: 6.63 MEQ/L
  SODIUM: 147 MEQ/L
  TOTAL BILIRUBIN: 0.43 mg/dL
  TOTAL PROTEIN: 5.8 G/DL
[5]
  BASOPHIL: 0.43%
  EOSINOPHIL: 0.4%
  ERYTHROCYTE COUNT: 6.51 x10E6/uL
  HEMATOCRIT: 40.63%
  HEMOGLOBIN: 13.03 G/DL
  LEUKOCYTE COUNT: 13 x10E3/uL
  LYMPHOCYTE: 81.9%
  MEAN CORPUSCULAR HEMOGLOBIN: 20.1 pg
  MEAN CORPUSCULAR HEMOGLOBIN CONCENTRATION: 32.13 G/DL
  MEAN CORPUSCULAR VOLUME: 62.43 fL
  MONOCYTE: 2.6%
  NEUTROPHIL: 13.63%
  PLATELET COUNT: 1415.67 x10E3/uL
  ALANINE AMINOTRANSFERASE: 40.33 u/L
  ALBUMIN: 3.43 G/DL
  ALKALINE PHOSPHATASE: 257 u/L
  ASPARTATE AMINOTRANSFERASE: 54 u/L
  BLOOD UREA NITROGEN: 12 mg/dL
  CHLORIDE: 103.67 MEQ/L
  CHOLESTEROL: 104 mg/dL
  CREATINE PHOSPHOKINASE: 162.67 u/L
  CREATININE: 0.37 mg/dL
  GLUCOSE: 183.67 mg/dL
  PHOSPHORUS: 12.7 mg/dL
  POTASSIUM: 6.67 MEQ/L
  SODIUM: 145.67 MEQ/L
  TOTAL BILIRUBIN: 0.33 mg/dL
  TOTAL PROTEIN: 5.87 G/DL
